Data: US9567324B2, “Substituted nicotinamide derivatives as kinase inhibitors” (Allergan, Inc., priority 2013, dated 2017)

Experiments:
[1] = target: PDGFRβ (purified cytoplasmic domain PDGFR-b protein) (Homo sapiens (Human), UniProt P09619); test: PDGFRβ Kinase Assay; type: biochemical; details: for IC50: 36 μM ATP, poly-Glu-Tyr (4:1) substrate, ELISA read-out, read-out: PDGFRβ Enzyme Assay (IC50 nM)
Experimental: Biochemical PDGFRβ kinase assays were performed in 96 well microtiter plates that were coated overnight with 75 μg of poly-Glu-Tyr (4:1) in 10 mM Phosphate Buffered Saline (PBS), pH 7.4. The coated plates were washed with 2 mls per well PBS+0.05% Tween-20 (PBS-T), blocked by incubation with PBS containing 1% BSA, then washed with 2 mls per well PBS-T prior to starting the reaction. Reactions were carried out in 100 μL reaction volumes containing 36 μM ATP in kinase buffer (50 mM Hepes buffer pH 7.4, 20 mM MgCl2, 0.1 mM MnCl2 and 0.2 mM Na3VO4). Test compounds were reconstituted in 100% DMSO and added to the reaction to give a final DMSO concentration of 5%. Reactions were initiated by the addition 20 ul per well of kinase buffer containing 200-300 ng purified cytoplasmic domain PDGFR-b protein (Millipore). Following a 60 minute incubation at 30° C., the reactions were washed 2 mls per well PBS-T. 100 μl of a monoclonal anti-phosphotyrosine antibody-peroxidase conjugate diluted 1:10,000 in PBS-T was added to the wells for 30 minutes. Following a 2 mls per well wash with PBS-Tween-20, 100 μl of O-Phenylenediamine Dihydrochloride in phosphate-citrate buffer, containing urea hydrogen peroxide, was added to the wells for 7-10 minutes as a colorimetric substrate for the peroxidase. The reaction was terminated by the addition of 100 μl of 2.5N H2SO4 to each well and read using a microplate ELISA reader set at 492 nm. IC50 values for compound inhibition were calculated directly from graphs of optical density (arbitrary units) versus compound concentration following subtraction of blank values.

[2] = target: PDGFRβ (Homo sapiens (Human), UniProt P09619); test: PDGFRβ Cellular Assay (FLIPR, PDGF-induced intracellular calcium in NHDF-Ad); type: cell-based; details: PDGF-BB stimulation (30 ng/mL), Fluo-4 FLIPR
Experimental: Automated FLIPR (Fluorometric Imaging Plate Reader) technology was used to screen for inhibitors of PDGF-induced increases in intracellular calcium levels in fluorescent dye loaded […] cells. NHDF-Ad (Normal Human Dermal Fibroblasts, Adult; Lonza) were seeded in 384-well fibronectin coated black-walled plates overnight @ 37° C./5% CO2. Cells were loaded with calcium indicator Fluo-4 for 45 minutes at 37° C. Cells were washed 2 times (E1×405, Biotek Instruments) to remove extracellular dye. For screening, cells were pre-incubated with test agents for 30 minutes, at a single concentration (10 uM) or at concentrations ranging from 0.0001 to 10.0 uM followed by PDGF-BB stimulation (30 ng/mL). Changes in fluorescence at 516 nm were measured simultaneously in all 384 wells using a cooled CCD camera. Data were generated by determining max-min fluorescence levels for unstimulated, stimulated, and drug treated samples. IC50 values for test compounds were calculated from % inhibition of PDGF-BB stimulated responses in the absence of inhibitor.

PDGFRβ (purified cytoplasmic domain PDGFR-b protein), sequence (P09619 554-1106): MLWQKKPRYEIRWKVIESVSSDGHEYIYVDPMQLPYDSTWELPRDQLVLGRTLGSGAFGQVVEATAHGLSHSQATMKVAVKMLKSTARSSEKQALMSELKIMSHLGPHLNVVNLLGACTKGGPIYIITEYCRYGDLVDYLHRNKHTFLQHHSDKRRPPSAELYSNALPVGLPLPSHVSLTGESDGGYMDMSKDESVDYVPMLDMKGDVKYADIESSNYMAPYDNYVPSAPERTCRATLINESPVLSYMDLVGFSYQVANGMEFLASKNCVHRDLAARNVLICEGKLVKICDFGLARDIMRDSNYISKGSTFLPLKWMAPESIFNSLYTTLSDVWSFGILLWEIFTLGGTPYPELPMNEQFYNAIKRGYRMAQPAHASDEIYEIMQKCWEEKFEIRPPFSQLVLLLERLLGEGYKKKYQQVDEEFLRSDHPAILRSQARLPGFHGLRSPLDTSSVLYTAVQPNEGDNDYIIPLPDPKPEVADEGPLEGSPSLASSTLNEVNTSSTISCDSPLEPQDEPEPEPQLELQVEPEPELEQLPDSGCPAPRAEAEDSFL
PDGFRβ, sequence (P09619 33-1106): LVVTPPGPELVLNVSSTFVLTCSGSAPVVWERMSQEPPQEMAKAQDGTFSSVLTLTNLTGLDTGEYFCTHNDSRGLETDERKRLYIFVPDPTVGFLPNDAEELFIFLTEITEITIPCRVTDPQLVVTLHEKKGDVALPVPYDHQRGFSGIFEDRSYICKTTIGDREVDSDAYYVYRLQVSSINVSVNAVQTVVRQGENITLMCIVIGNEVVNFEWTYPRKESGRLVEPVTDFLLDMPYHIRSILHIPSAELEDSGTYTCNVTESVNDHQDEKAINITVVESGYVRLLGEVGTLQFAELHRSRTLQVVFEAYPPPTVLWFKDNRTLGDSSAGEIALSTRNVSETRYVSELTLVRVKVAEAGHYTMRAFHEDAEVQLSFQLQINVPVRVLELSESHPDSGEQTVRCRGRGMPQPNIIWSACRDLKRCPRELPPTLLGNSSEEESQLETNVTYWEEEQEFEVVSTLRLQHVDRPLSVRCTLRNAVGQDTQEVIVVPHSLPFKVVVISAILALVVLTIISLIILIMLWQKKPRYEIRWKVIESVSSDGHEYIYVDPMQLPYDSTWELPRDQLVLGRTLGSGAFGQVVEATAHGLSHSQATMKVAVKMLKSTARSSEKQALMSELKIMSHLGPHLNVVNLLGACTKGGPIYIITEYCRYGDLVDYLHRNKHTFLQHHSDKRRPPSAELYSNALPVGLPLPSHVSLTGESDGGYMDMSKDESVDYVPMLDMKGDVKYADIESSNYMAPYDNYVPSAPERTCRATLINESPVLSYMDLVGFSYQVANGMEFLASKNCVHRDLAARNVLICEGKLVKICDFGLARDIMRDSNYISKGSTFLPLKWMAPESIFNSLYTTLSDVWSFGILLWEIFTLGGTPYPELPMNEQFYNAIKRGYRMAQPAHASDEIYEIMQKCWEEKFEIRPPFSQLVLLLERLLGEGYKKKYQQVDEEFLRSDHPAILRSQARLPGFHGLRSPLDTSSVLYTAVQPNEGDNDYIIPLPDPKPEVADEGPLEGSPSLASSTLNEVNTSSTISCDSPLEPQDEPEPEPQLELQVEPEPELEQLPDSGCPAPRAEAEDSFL

activity/potency at the PDGFRβ receptor (in words) [1]	IC50 [1]	IC50 [2]	Compound
greatest potency			Cc1ccc(F)c(C(=O)Nc2cccc(C#Cc3cc(C(=O)N=S4(=O)CCN(C(=O)OC(C)(C)C)CC4)cnc3N)c2)c1 [Example 16, tert-butyl 1-({[6-Amino-5-({3-[(2-fluoro-5-methylbenzoyl)amino]phenyl}ethynyl)pyridin-3-yl]carbonyl}imino)-1λ^4,4-thiazinane-4-carboxylate 1-oxide]
	13 nM		Nc1ncc(C(=O)N=S2(=O)CCOCC2)cc1C#Cc1cccc(C(=O)Nc2ccc(Cl)c(C(F)(F)F)c2)c1 [Example 23, 6-amino-5-{[3-({[4-chloro-3-(trifluoromethyl)phenyl]amino}carbonyl)phenyl]ethynyl}-N-(4-oxido-1,4λ^4-oxathian-4-ylidene)nicotinamide]
	23 nM	19 nM	Cc1ccoc1C(=O)Nc1cccc(C#Cc2cncc(C(=O)N=S3(=O)CCOCC3)c2)c1 [Example 19, 5-({3-[(3-methyl-2-furoyl)amino]phenyl}ethynyl)-N-(4-oxido-1,4λ^4-oxathian-4-ylidene)nicotinamide]
	51 nM	31 nM	Cc1ccoc1C(=O)Nc1cccc(C#Cc2cc(C(=O)N=S3(=O)CCOCC3)cnc2N)c1 [Example 20, 6-amino-5-({3-[(3-methyl-2-furoyl)amino]phenyl}ethynyl)-N-(4-oxido-1,4λ^4-oxathian-4-ylidene)nicotinamide]
greatest potency	7 nM		Cc1ccc(F)c(C(=O)Nc2cccc(C#Cc3cc(C(=O)N=S4(=O)CCNCC4)cnc3N)c2)c1 [Example 17, 6-Amino-5-({3-[(2-fluoro-5-methylbenzoyl)amino]phenyl}ethynyl)-N-(1-oxido-1λ^4,4-thiazinan-1-ylidene)nicotinamide]
greatest potency			Cc1ccoc1C(=O)Nc1cccc(C#Cc2cc(C(=O)N=S3(=O)CCN(C(=O)OC(C)(C)C)CC3)cnc2N)c1 [Example 13, tert-Butyl 1-({[6-amino-5-({3-[(3-methyl-2-furoyl)amino]phenyl}ethynyl)pyridin-3-yl]carbonyl}imino)-1λ^4,4-thiazinane-4-carboxylate 1-oxide]
	24 nM		Cc1ccc(F)c(C(=O)Nc2cccc(C#Cc3cc(C(=O)N=S4(=O)CCOCC4)cnc3N)c2)c1 [Example 21, 6-amino-5-({3-[(2-fluoro-5-methylbenzoyl)amino]phenyl}ethynyl)-N-(4-oxido-1,4λ^4-oxathian-4-ylidene)nicotinamide]
greatest potency			Cc1ccoc1C(=O)Nc1cccc(C#Cc2cncc(C(=O)N=S3(=O)CCN(C(N)=O)CC3)c2)c1 [Example 3, 1-({[5-({3-[(3-Methyl-2-furoyl)amino]phenyl}ethynyl)pyridin-3-yl]carbonyl}imino)-1λ^4,4-thiazinane-4-carboxamide 1-oxide]
	19 nM		COc1cccc(NC(=O)c2cccc(C#Cc3cc(C(=O)N=S4(=O)CCOCC4)cnc3N)c2)c1 [Example 25, 6-amino-5-[(3-{[(3-methoxyphenyl)amino]carbonyl}phenyl)ethynyl]-N-(4-oxido-1,4λ^4-oxathian-4-ylidene)nicotinamide]
	7 nM		Cc1ccc(F)c(C(=O)Nc2cccc(C#Cc3cc(C(=O)N=S4(=O)CCN(C(N)=O)CC4)cnc3N)c2)c1 [Example 18, 1-({[6-Amino-5-({3-[(2-fluoro-5-methylbenzoyl)amino]phenyl}ethynyl)pyridin-3-yl]carbonyl}imino)-1λ^4,4-thiazinane-4-carboxamide 1-oxide]
best activity	10 nM		CC(C)(C)c1cc(NC(=O)c2cccc(C#Cc3cc(C(=O)N=S4(=O)CCOCC4)cnc3N)c2)no1 [Example 24, 6-amino-5-[(3-{[(5-tert-butylisoxazol-3-yl)amino]carbonyl}phenyl)ethynyl]-N-(4-oxido-1,4λ^4-oxathian-4-ylidene)nicotinamide]
greatest potency			CCOC(=O)CNC(=O)N1CCS(=O)(=NC(=O)c2cncc(C#Cc3cccc(NC(=O)c4occc4C)c3)c2)CC1 [Example 11, Ethyl({[1-({[5-({3-[(3-methyl-2-furoyl)amino]phenyl}ethynyl)pyridin-3-yl]carbonyl}imino)-1-oxido-1λ^4,4-thiazinan-4-yl]carbonyl}amino)acetate]
		17 nM	Cc1ccc(F)c(NC(=O)c2cccc(C#Cc3cc(C(=O)N=S4(=O)CCOCC4)cnc3N)c2)c1 [Example 22, 6-amino-5-[(3-{[(2-fluoro-5-methylphenyl)amino]carbonyl}phenyl)ethynyl]-N-(4-oxido-1,4λ^4-oxathian-4-ylidene)nicotinamide]
